Measurements reported in US20170107482A1, “ANIMAL CELL REGENERATION SPEED CONTROLLING METHOD AND ANIMAL CELL REGENERATION SPEED CONTROLLER” (TOYOTA BOSHOKU KABUSHIKI KAISHA, priority 2015, published 2017).

Tested on: Planarians (Dugesia japonica)
Assay: Animal cell regeneration experiment (ii): head (eye) regeneration of cut planarians after immersion in Azakenpaullone
Assay type: in vivo
Conditions: 0.5 μM, 24 h immersion; for individuals died and disappeared before regeneration: among the total nine individuals
Protocol: Hereinafter, the present invention will be specifically described using Examples. In the following Examples 1 and 2, regeneration experiment was conducted using Planarians (Dugesia japonica) as one kind of flatworm.
Thereafter, the planarians belonging to Groups A and B were respectively placed in petri dishes, so that the amount of water per planarian was 2.5 mL, in a thermostat bath set to a temperature of 13° C. The planarians were grown for 14 days ([…]) under a condition and in an environment such that water was changed every three days. The respective regeneration states of their heads in this period were observed over time with an optical microscope every 24 hours after cutting to evaluate the degree of regeneration after 14 days had elapsed based on the following three references (see Teresa Adel et al., Dev Genes Evol (2008) 218:89-103, as for the references for the degree of regeneration). The planarians ranked as “regeneration degree 2” or “regeneration degree 3” were determined to “have been regenerated,” and those ranked as “regeneration degree 1” were determined to “be unregenerated.” The number of planarians determined to “have been regenerated” was counted over time, and the result thereof is indicated in Table 1.
“Regeneration degree 1”: Eyes being developed cannot be identified.
“Regeneration degree 2”: Eyes being developed can be identified.
“Regeneration degree 3”: Eyes can be identified.
Firstly, planarians having an equivalent size were selected, and divided into Group C (n=9) and Group D (n=9). For the planarians belonging to Group C, the living bodies were cut near the center at a timing in the same time zone as that for Group A in Example 1 (namely, immediately after the RGA turned downward from the maximum value immediately before) (see FIG. 2).
For the planarians (n=9) belonging to Group D, the living bodies were cut near the center at a timing in the same time zone as that for Group B in Example 1 (namely, immediately after the RGA turned upward from the minimum value immediately before) (see FIG. 2).
Thereafter, the planarians belonging to Groups C and D were respectively immersed for 24 hours in a solution of Azakenpaullone that is a drug suppressing normal differentiation at a concentration of 0.5 μM, then placed in petri dishes, so that the amount of water per planarian was 2.5 mL, in a thermostat bath set to a temperature of 13° C., and were grown for 15 days ([…]) under a condition and in an environment such that water was changed every three days. The respective regeneration states of their heads were observed over time with an optical microscope every 24 hours after cutting to evaluate the degree of regeneration after 15 days had elapsed in the same manner as in Example 1. At this time, the planarians were determined as to whether they “had been regenerated” or “were unregenerated” in the same manner as in Example 1. The number of planarians determined to “have been regenerated” was counted over time, and the result thereof is indicated in Table 2.
The treating method using Azakenpaullone was referred to a description of Teresa Adel et al., Dev Genes Evol 218(2008) 89-103.

With `O=C1Cc2c([nH]c3ccc(Br)cc23)-c2ncccc2N1` [Azakenpaullone] the “Number of planarians determined to have been regenerated (cumulative)” value (“Number of planarians determined” for short) (Group C (n=9), cut immediately after RGA turned downward from maximum, 0 h after cutting) was 0, the “Number of planarians determined” value (Group C (n=9), cut immediately after RGA turned downward from maximum, 24 h after cutting) was 0 and the “Number of planarians determined” value (Group C (n=9), cut immediately after RGA turned downward from maximum, 48 h after cutting) was 0. The “Number of planarians determined” value (Group C (n=9), cut immediately after RGA turned downward from maximum, 72 h after cutting) was 0, the “Number of planarians determined” value (Group C (n=9), cut immediately after RGA turned downward from maximum, 96 h after cutting) was 0 and the “Number of planarians determined” value (Group C (n=9), cut immediately after RGA turned downward from maximum, 120 h after cutting) was 0. For the same molecule, the “Number of planarians determined” value (Group C (n=9), cut immediately after RGA turned downward from maximum, 144 h after cutting) was 0, the “Number of planarians determined” value (Group C (n=9), cut immediately after RGA turned downward from maximum, 168 h after cutting) was 0 and the “Number of planarians determined” value (Group C (n=9), cut immediately after RGA turned downward from maximum, 192 h after cutting) was 0. The “Number of planarians determined” value (Group C (n=9), cut immediately after RGA turned downward from maximum, 216 h after cutting) was 1, the “Number of planarians determined” value (Group C (n=9), cut immediately after RGA turned downward from maximum, 240 h after cutting) was 2 and the “Number of planarians determined” value (Group C (n=9), cut immediately after RGA turned downward from maximum, 264 h after cutting) was 2. The “Number of planarians determined” value (Group C (n=9), cut immediately after RGA turned downward from maximum, 288 h after cutting) was 3, the “Number of planarians determined” value (Group C (n=9), cut immediately after RGA turned downward from maximum, 312 h after cutting) was 4 and the “Number of planarians determined” value (Group C (n=9), cut immediately after RGA turned downward from maximum, 336 h after cutting) was 4. The “Number of planarians determined” value (Group C (n=9), cut immediately after RGA turned downward from maximum, 360 h after cutting) was 5, the “individuals died and disappeared before regeneration” value (Group C, cut immediately after RGA turned downward) was “four” and the “Number of planarians determined” value (Group D (n=9), cut immediately after RGA turned upward from minimum, 0 h after cutting) was 0. For the same molecule, the “Number of planarians determined” value (Group D (n=9), cut immediately after RGA turned upward from minimum, 24 h after cutting) was 0, the “Number of planarians determined” value (Group D (n=9), cut immediately after RGA turned upward from minimum, 48 h after cutting) was 0 and the “Number of planarians determined” value (Group D (n=9), cut immediately after RGA turned upward from minimum, 72 h after cutting) was 0. For the same molecule, the “Number of planarians determined” value (Group D (n=9), cut immediately after RGA turned upward from minimum, 96 h after cutting) was 0, the “Number of planarians determined” value (Group D (n=9), cut immediately after RGA turned upward from minimum, 120 h after cutting) was 0 and the “Number of planarians determined” value (Group D (n=9), cut immediately after RGA turned upward from minimum, 144 h after cutting) was 0. The “Number of planarians determined” value (Group D (n=9), cut immediately after RGA turned upward from minimum, 168 h after cutting) was 0, the “Number of planarians determined” value (Group D (n=9), cut immediately after RGA turned upward from minimum, 192 h after cutting) was 0 and the “Number of planarians determined” value (Group D (n=9), cut immediately after RGA turned upward from minimum, 216 h after cutting) was 0. For the same molecule, the “Number of planarians determined” value (Group D (n=9), cut immediately after RGA turned upward from minimum, 240 h after cutting) was 6, the “Number of planarians determined” value (Group D (n=9), cut immediately after RGA turned upward from minimum, 264 h after cutting) was 6 and the “Number of planarians determined” value (Group D (n=9), cut immediately after RGA turned upward from minimum, 288 h after cutting) was 6. The “Number of planarians determined” value (Group D (n=9), cut immediately after RGA turned upward from minimum, 312 h after cutting) was 6, the “Number of planarians determined” value (Group D (n=9), cut immediately after RGA turned upward from minimum, 336 h after cutting) was 6 and the “Number of planarians determined” value (Group D (n=9), cut immediately after RGA turned upward from minimum, 360 h after cutting) was 6. The “individuals died and disappeared before regeneration” value (Group D, cut immediately after RGA turned upward) was “three”.
